Experimental data as given in publication PMC7866232, “New Substituted 5-Benzylideno-2-Adamantylthiazol[3,2-b][1,2,4]Triazol-6(5H)ones as Possible Anti-Inflammatory Agents” (Molecules, 2021).
Like-named read-outs stand apart in the source and are kept apart here.

Key:
[1] = tested on: carrageenin-induced mouse paw edema; assay: Carrageenin-induced mouse paw edema (CPE), in vivo anti-inflammatory activity; conditions: for inhibition in vivo at 10 µmol/kg: Mus musculus, ip, mice, 0.01 mmol/kg body weight intraperitoneally, given simultaneously with carrageenin (2%, 0.05 mL); for increased anti-inflammatory activity compared to indomethacin: carrageenin paw edema, relative to indomethacin
Experimental: The in vivo anti-inflammatory effect of the tested compounds was assessed by using the functional model of carrageenin-induced mouse paw edema and is presented as the percentage of inhibition of induction of edema at the right hind paw (Table 1).
Edema was measured by weight increase of the right hind paw in comparison to the […] left paw.
Twenty-five thiazolo[3,2-b]1,2,4-triazole derivatives, previously synthesized were evaluated for their anti-inflammatory activity, in vivo using groups of 6–10 mice of R’’’ strain.
The anti-inflammatory activity of the compounds synthesized was studied with the Carragenin-Induced Paw Edema acute inflammation test using an aqueous carrageenin solution (2%, 0,05 mL), [14] which was injected intradermally in the footpad of the right hind limb muscle (mice R’’’ groups of 6–10 animals), whereas the left end serves as a reference. In the experimental procedure both sex male mice were used, excluding pregnant. Animals were fasted during the time of the experiment. The tested compounds (0.01 mmol/kg body weight), were suspended in water, with few drops of Tween 80 and ground in a mortar before use and were given intraperitoneally simultaneously with the carrageenin injection.

ovine COX-1 = molecular target: T1, ovine COX-1 (Ovis aries, UniProt P05979); assay: COX inhibitor screening assay in vitro, COX-1; format: biochemical; conditions: for inhibition at 200 µM: read-out: COX-1 (%) inhibition
T1 construct: purchased Cayman Chemical Co., Ann Arbor, MI, USA
T1 sequence (P05979 25-600): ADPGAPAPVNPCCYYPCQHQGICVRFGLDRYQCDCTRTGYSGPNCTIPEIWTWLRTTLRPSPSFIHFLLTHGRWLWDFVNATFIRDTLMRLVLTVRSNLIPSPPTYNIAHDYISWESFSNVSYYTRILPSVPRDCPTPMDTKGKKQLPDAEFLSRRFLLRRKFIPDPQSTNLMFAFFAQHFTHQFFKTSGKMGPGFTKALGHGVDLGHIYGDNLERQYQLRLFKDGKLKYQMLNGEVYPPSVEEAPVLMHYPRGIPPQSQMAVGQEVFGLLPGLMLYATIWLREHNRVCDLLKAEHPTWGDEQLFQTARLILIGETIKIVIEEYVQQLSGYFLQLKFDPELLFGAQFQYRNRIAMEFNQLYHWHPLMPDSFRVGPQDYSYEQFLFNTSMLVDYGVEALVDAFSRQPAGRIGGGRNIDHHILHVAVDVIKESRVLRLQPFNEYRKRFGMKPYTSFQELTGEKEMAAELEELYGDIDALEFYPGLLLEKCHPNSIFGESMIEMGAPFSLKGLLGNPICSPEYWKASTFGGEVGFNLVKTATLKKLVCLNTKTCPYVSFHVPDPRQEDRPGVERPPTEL
Experimental: (§1) The COX-1 and COX-2 activities of the compounds were measured using ovine COX-1 and human recombinant COX-2 enzymes included in the “COX I inhibitor Screening Assay” kit provided by Cayman (Cayman Chemical Co., Ann Arbor, MI, USA). The assay directly measures PGF2 a produced by SnCl2 reduction of COX-derived PGH2. The prostanoid production was quantified via enzyme immunoassay using a broadly specific antibody that binds to all the major prostaglandin compounds. […]

human recombinant COX-2 = molecular target: T2, human recombinant COX-2 (Homo sapiens, UniProt P35354); assay: COX inhibitor screening assay in vitro, COX-2; format: biochemical; conditions: for inhibition at 200 µM: read-out: COX-2 (%) inhibition
T2 construct: purchased Cayman Chemical Co., Ann Arbor, MI, USA
T2 sequence (P35354 18-604): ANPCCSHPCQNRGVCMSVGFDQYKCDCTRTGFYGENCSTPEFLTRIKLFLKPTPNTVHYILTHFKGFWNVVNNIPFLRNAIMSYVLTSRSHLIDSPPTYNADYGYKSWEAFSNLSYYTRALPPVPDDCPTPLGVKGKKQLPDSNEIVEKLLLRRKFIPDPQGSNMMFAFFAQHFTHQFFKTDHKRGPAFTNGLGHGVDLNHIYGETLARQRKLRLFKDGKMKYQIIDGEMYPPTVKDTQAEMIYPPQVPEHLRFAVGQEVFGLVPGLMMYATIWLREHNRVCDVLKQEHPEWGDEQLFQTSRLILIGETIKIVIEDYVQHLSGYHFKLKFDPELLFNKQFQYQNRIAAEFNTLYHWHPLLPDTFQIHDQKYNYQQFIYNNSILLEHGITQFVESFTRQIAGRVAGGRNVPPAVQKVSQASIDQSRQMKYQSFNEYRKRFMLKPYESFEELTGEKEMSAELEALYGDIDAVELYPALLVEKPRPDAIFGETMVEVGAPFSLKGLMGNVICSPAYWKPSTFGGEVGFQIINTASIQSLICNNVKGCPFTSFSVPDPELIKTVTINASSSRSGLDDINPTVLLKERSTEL
Experimental: as §1

soybean lipoxygenase = molecular target: T3, soybean lipoxygenase (Glycine max, UniProt P08170); assay: Soybean lipoxygenase inhibition in vitro; format: biochemical; conditions: 0.1 mM sodium linoleate, 234 nm
T3 sequence (P08170 1-839): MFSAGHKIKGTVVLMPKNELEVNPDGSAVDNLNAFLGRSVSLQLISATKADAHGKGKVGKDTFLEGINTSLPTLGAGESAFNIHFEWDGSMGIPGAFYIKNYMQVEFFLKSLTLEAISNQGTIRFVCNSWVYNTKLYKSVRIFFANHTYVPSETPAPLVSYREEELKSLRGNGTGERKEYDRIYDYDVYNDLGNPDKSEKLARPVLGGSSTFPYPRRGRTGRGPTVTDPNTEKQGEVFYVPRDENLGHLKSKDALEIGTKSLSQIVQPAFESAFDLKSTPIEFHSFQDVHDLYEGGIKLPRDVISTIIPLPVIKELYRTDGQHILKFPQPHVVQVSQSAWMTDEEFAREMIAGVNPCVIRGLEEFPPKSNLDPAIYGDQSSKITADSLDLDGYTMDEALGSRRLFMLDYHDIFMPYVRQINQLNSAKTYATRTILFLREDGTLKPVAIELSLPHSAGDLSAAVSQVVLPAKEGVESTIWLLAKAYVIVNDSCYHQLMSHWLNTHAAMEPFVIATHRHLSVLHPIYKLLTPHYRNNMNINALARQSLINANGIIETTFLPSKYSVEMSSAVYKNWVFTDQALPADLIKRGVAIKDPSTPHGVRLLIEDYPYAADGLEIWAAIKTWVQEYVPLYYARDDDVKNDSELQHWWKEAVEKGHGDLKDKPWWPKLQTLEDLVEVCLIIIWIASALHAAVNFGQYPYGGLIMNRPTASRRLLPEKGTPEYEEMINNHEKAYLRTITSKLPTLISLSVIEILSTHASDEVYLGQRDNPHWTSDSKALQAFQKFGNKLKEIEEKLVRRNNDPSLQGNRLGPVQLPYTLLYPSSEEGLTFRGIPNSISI
Experimental: The compounds tested were dissolved in DMSO and preincubated for 4 min at 28 °C in the presence of 753 U/mL 5-soybean lipoxygenase (5-LOX). The enzyme reaction was triggered by addition of a final concentration of 0.1 mM sodium linoleate. The conversion of sodium linoleate 13-hydrouperoxylinoleic acid was measured at 234 nm. Absorbance was measured at time 0 and 3 min.

[2] = at 200 μM, 0.1 μM arachidonic acid

Row | SMILES | inhibition in vivo at 10 µmol/kg [1] [%] | inhibition at 200 µM (ovine COX-1; [2]) [%] | inhibition at 200 µM (human recombinant COX-2; [2]) [%] | LOX (%) inhibition (soybean lipoxygenase) [%] | other results
1 | COc1cc(/C=c2\sc3nc(C45CC6CC(CC(C6)C4)C5)nn3c2=O)cc(OC)c1O [Compound 7] | 36 | 22 | 25 | 16.13 | –
2 | O=c1/c(=C/c2ccc(Br)cc2)sc2nc(C34CC5CC(CC(C5)C3)C4)nn12 [Compound 19] | 51 to 67 | 16 | 36 | 8.07 | –
3 | COc1ccc2cc([C@H](C)C(=O)O)ccc2c1 [Naproxen, reference compound] | – | – | – | – | inhibition at 200 µM (ovine COX-1): 60%; inhibition at 200 µM (human recombinant COX-2): 65%
4 | O=c1/c(=C/c2ccc(Cl)cc2)sc2nc(C34CC5CC(CC(C5)C3)C4)nn12 [Compound 22] | 51 to 67 | – | – | – | –
5 | COc1ccc(/C=c2\sc3nc(C45CC6CC(CC(C6)C4)C5)nn3c2=O)cc1OC [Compound 9] | 40 to 49 | – | – | – | –
6 | O=c1/c(=C/c2ccccc2)sc2nc(C34CC5CC(CC(C5)C3)C4)nn12 [Compound 1] | 40 to 49 | – | – | – | –
7 | COc1ccc(/C=c2\sc3nc(C45CC6CC(CC(C6)C4)C5)nn3c2=O)cc1 [Compound 8] | 51 to 67 | 60.5 | 0 | 5.72 | increased anti-inflammatory activity compared to indomethacin [1]: 32%; IC50 (ovine COX-1): 41.9 µM; COX-2 (%) inhibition (human recombinant COX-2; [2]): completely inactive
8 | O=c1/c(=C/c2ccccc2Br)sc2nc(C34CC5CC(CC(C5)C3)C4)nn12 [Compound 17] | 51 to 67 | 16 | 0 | 17.15 | –
9 | O=c1/c(=C/c2ccccc2Cl)sc2nc(C34CC5CC(CC(C5)C3)C4)nn12 [Compound 20] | 40 to 49 | – | – | – | –
10 | O=c1/c(=C/c2cccc(Cl)c2)sc2nc(C34CC5CC(CC(C5)C3)C4)nn12 [Compound 21] | 40 to 49 | – | – | – | –
11 | O=c1/c(=C/c2ccccc2[N+](=O)[O-])sc2nc(C34CC5CC(CC(C5)C3)C4)nn12 [Compound 12] | 40 to 49 | – | – | – | –
12 | COc1cc(/C=c2\sc3nc(C45CC6CC(CC(C6)C4)C5)nn3c2=O)cc(OC)c1OC [Compound 10] | 40 to 49 | – | – | – | –
13 | O=c1/c(=C/c2cccc([N+](=O)[O-])c2)sc2nc(C34CC5CC(CC(C5)C3)C4)nn12 [Compound 13] | 15 | – | – | – | –
14 | COc1cccc(/C=c2\sc3nc(C45CC6CC(CC(C6)C4)C5)nn3c2=O)c1O [Compound 5] | 51 to 67 | – | – | – | increased anti-inflammatory activity compared to indomethacin [1]: 23%
15 | O=c1/c(=C/c2cccc(Br)c2)sc2nc(C34CC5CC(CC(C5)C3)C4)nn12 [Compound 18] | 51 to 67 | 0 | 37 | 31.43 | –
16 | O=c1/c(=C/c2ccc(O)cc2O)sc2nc(C34CC5CC(CC(C5)C3)C4)nn12 [Compound 4] | 40 to 49 | – | – | – | –
17 | O=c1/c(=C/c2ccc(O)cc2)sc2nc(C34CC5CC(CC(C5)C3)C4)nn12 [Compound 3] | 37 | 93 | 25 | 28.58 | COX-1 IC50 fold lower than that of naproxen (ovine COX-1): 30 fold; IC50 (ovine COX-1): 1.28 µM
18 | O=c1/c(=C/c2ccc([N+](=O)[O-])cc2)sc2nc(C34CC5CC(CC(C5)C3)C4)nn12 [Compound 14] | 40 to 49 | – | – | – | –
19 | COc1cc(/C=c2\sc3nc(C45CC6CC(CC(C6)C4)C5)nn3c2=O)ccc1O [Compound 6] | 40 to 49 | 26.2 | 66 | 6.67 | IC50 (human recombinant COX-2): > 50 µM
20 | O=c1/c(=C/c2cccc(F)c2)sc2nc(C34CC5CC(CC(C5)C3)C4)nn12 [Compound 15] | 51 to 67 | 36 | 23 | 27.15 | –
21 | O=c1/c(=C/c2cccc(Cl)c2Cl)sc2nc(C34CC5CC(CC(C5)C3)C4)nn12 [Compound 23] | 37 | 46 | 20 | 11.43 | –
22 | CN(C)c1ccc(/C=c2\sc3nc(C45CC6CC(CC(C6)C4)C5)nn3c2=O)cc1 [Compound 11] | 51 to 67 | – | – | – | –
23 | O=c1/c(=C/c2c(Cl)cccc2Cl)sc2nc(C34CC5CC(CC(C5)C3)C4)nn12 [Compound 25] | 32 | – | – | – | –
24 | O=c1/c(=C/c2ccc(Cl)cc2Cl)sc2nc(C34CC5CC(CC(C5)C3)C4)nn12 [Compound 24] | 37 | – | – | – | –
